Data reported in ChEMBL document CHEMBL4229450, “The synthetic chalcone derivative 2-hydroxy-3',5,5'-trimethoxychalcone induces unfolded protein response-mediated apoptosis in A549 lung cancer cells” (Bioorg Med Chem Lett, 2018).
Active and inactive are the calls of the source. The calls are words filed in the database; no cut-off is given here.

Assays:
A549 [1] = test: Induction of apoptosis in human A549 cells assessed as late apoptotic cells at 20 uM after 24 hrs by Annexn V-FITC/propidium iodide staining based flow cytometry (reference value: 3%); format: functional
A549 [2] = test: Induction of apoptosis in human A549 cells assessed as necrotic cells at 20 uM after 24 hrs by Annexn V-FITC/propidium iodide staining based flow cytometry (reference value: 10%); format: functional
A549 [3] = test: Anticlonogenic activity against human A549 cells at 20 uM after 7 days by crystal violet staining based assay; format: functional, cell-based
NCI-H460 = test: Anticlonogenic activity against human NCI-H460 cells at 20 uM after 7 days by crystal violet staining based assay; format: functional, cell-based
NCI-H1299 = test: Anticlonogenic activity against human NCI-H1299 cells at 20 uM after 7 days by crystal violet staining based assay; format: functional, cell-based
A549 [4] = test: Growth inhibition of human A549 cells assessed as cell viability at 5 uM after 24 hrs by CCK8 assay relative to control; format: functional; conditions: A549, 24 h, read-out: Activity
A549 [5] = test: Growth inhibition of human A549 cells assessed as cell viability at 10 uM after 24 hrs by CCK8 assay relative to control; format: functional; conditions: A549, 24 h, read-out: Activity
A549 [6] = test: Growth inhibition of human A549 cells assessed as cell viability at 20 uM after 24 hrs by CCK8 assay relative to control; format: functional; conditions: A549, 24 h, read-out: Activity
A549 [7] = test: Cell cycle arrest in human A549 cells assessed as accumulation at sub-G1 phase at 20 uM after 24 hrs by propidium iodide staining based flow cytometry (reference value: 2 to 2.3%); format: functional
A549 [8] = test: Cell cycle arrest in human A549 cells assessed as accumulation at G1 phase at 20 uM after 24 hrs by propidium iodide staining based flow cytometry (reference value: 57%); format: functional
A549 [9] = test: Cell cycle arrest in human A549 cells assessed as accumulation at S phase at 20 uM after 24 hrs by propidium iodide staining based flow cytometry (reference value: 25.6 to 26%); format: functional
A549 [10] = test: Cell cycle arrest in human A549 cells assessed as accumulation at G2/M phase at 20 uM after 24 hrs by propidium iodide staining based flow cytometry (reference value: 14.8 to 15%); format: functional
A549 [11] = test: Induction of apoptosis in human A549 cells assessed as live cells at 20 uM after 24 hrs by Annexn V-FITC/propidium iodide staining based flow cytometry (reference value: 83%); format: functional
A549 [12] = test: Induction of apoptosis in human A549 cells assessed as early apoptotic cells at 20 uM after 24 hrs by Annexn V-FITC/propidium iodide staining based flow cytometry (reference value: 5%); format: functional
A549 [13] = test: Induction of apoptosis in human A549 cells assessed as increase in cleaved caspase-9 expression at 20 uM after 12 hrs by immunoblot analysis; format: functional, cell-based
A549 [14] = test: Induction of apoptosis in human A549 cells assessed as increase in cleaved caspase-7 expression at 20 uM after 12 hrs by immunoblot analysis; format: functional, cell-based
A549 [15] = test: Induction of apoptosis in human A549 cells assessed as increase in cleaved PARP expression at 20 uM after 12 hrs by immunoblot analysis; format: functional, cell-based
A549 [16] = test: Induction of apoptosis in human A549 cells assessed as increase in cleaved caspase-7 expression at 20 uM after 18 hrs by Alexa Fluor-488/Hoechst 33258 staining based fluorescence microscopic method; format: functional, cell-based
A549 [17] = test: Induction of apoptosis in human A549 cells assessed as disruption of microtubule organization at 20 uM after 18 hrs by Alexa Fluor-488/Hoechst 33258 staining based fluorescence microscopic method; format: functional, cell-based
A549 [18] = test: Induction of apoptosis in human A549 cells assessed as nuclear condensation and fragmentation at 20 uM after 18 hrs by Alexa Fluor-488/Hoechst 33258 staining based fluorescence microscopic method; format: functional, cell-based
A549 [19] = test: Induction of apoptosis in human A549 cells assessed as increase in cleaved caspase-7 expression at 20 uM pre-treated with pan-caspase inhibitor zVAD-FMK fopr 30 mins before compound incubation for 12 hrs by immunoblot analysis; format: functional, cell-based
A549 [20] = test: Induction of apoptosis in human A549 cells assessed as increase in cleaved PARP expression at 20 uM pre-treated with pan-caspase inhibitor zVAD-FMK fopr 30 mins before compound incubation for 12 hrs by immunoblot analysis; format: functional, cell-based
MDA-MB-231 = test: Induction of apoptosis in human MDA-MB-231 cells assessed as increase in cleaved PARP expression at 20 uM after 12 hrs by immunoblot analysis; format: functional, cell-based
MCF-12A = test: Induction of apoptosis in human MCF12A cells assessed as increase in cleaved PARP expression at 20 uM after 12 hrs by immunoblot analysis; format: cell-based
[21] = biological target: T1, Eukaryotic translation initiation factor 2-alpha kinase 3 (Homo sapiens) (UniProt Q9NZJ5); test: Induction of ER stress-activated unfolded protein response pathway in human A549 cells assessed as increase in PERK phosphorylation at Thr981 residue at 20 uM up to 6 hrs by immunoblot analysis; format: cell-based
T1 sequence (whole entry): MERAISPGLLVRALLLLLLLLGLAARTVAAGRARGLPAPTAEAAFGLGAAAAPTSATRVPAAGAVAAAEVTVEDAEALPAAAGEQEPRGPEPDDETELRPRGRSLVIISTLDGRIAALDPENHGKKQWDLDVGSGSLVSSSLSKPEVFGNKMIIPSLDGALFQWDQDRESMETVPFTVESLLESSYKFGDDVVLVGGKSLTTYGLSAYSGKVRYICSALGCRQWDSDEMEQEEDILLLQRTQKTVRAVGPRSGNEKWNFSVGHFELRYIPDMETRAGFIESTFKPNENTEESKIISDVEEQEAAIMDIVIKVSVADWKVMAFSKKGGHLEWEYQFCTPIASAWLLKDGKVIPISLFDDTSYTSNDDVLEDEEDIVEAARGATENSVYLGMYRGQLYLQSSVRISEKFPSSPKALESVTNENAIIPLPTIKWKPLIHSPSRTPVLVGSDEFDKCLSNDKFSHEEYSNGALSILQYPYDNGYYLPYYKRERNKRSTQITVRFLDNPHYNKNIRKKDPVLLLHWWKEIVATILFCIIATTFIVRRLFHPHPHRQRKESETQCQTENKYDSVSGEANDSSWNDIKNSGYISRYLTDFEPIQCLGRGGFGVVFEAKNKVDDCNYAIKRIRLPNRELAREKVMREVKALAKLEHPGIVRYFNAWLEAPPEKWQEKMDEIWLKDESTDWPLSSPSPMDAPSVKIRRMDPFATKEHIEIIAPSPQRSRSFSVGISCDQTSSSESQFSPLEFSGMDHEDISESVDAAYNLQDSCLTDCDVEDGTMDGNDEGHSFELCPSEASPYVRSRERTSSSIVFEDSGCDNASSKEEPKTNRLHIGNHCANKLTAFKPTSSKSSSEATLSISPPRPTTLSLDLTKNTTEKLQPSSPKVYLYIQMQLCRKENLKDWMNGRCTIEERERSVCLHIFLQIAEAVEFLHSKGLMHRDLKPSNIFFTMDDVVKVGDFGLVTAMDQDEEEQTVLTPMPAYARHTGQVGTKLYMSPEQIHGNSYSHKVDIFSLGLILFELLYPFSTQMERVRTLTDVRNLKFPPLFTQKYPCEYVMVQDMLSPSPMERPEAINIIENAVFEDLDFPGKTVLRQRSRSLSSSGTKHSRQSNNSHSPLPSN

A549 [22] = test: Induction of ER stress-activated unfolded protein response pathway in human A549 cells assessed as accumulation of GRP78 protein level at 20 uM after 12 hrs by immunoblot analysis; format: functional, cell-based
A549 [23] = test: Induction of ER stress-activated unfolded protein response pathway in human A549 cells assessed as accumulation of IRE1alpha protein level at 20 uM after 12 hrs by immunoblot analysis; format: functional, cell-based
A549 [24] = test: Induction of ER stress-activated unfolded protein response pathway in human A549 cells assessed as increase in IRE1alpha-mediated splicing of XBP1 mRNA by measuring increase in 540-base pair fragments at 20 uM within 3 hrs by RT-PCR analysis; format: functional, cell-based
A549 [25] = test: Induction of ER stress-activated unfolded protein response pathway in human A549 cells assessed as increase in IRE1alpha-mediated splicing of XBP1 by measuring increase in XBP1 (56 kDa) level at 20 uM after 6 to 12 hrs by immunoblot analysis; format: functional, cell-based
A549 [26] = test: Induction of ER stress-activated unfolded protein response pathway in human A549 cells assessed as increase in ATF4 expression at 20 uM after 6 hrs by immunoblot analysis; format: functional, cell-based
A549 [27] = test: Induction of ER stress-activated unfolded protein response pathway in human A549 cells assessed as increase in CHOP expression at 20 uM after 6 to 12 hrs by immunoblot analysis; format: functional, cell-based
A549 [28] = test: Induction of ER stress-activated unfolded protein response pathway in human A549 cells harboring pFA-CHOP-GAL4/p-GAL4-DBD-Luc assessed as increase in CHOP trans-acting activity after 12 hrs by luciferase reporter gene assay; format: functional, cell-based
A549 [29] = test: Induction of ER stress-activated unfolded protein response pathway in human A549 cells assessed as increase in Bim expression at 20 uM after 12 hrs by immunoblot analysis; format: functional, cell-based
A549 [30] = test: Induction of ER stress-activated unfolded protein response pathway-mediated apoptosis in human A549 cells assessed as increase in cleaved caspase-7 expression at 20 uM pre-treated with stress inhibitor 4-PBA before compound addition by immunoblot analysis; format: functional, cell-based
A549 [31] = test: Induction of ER stress-activated unfolded protein response pathway-mediated apoptosis in human A549 cells assessed as increase in cleaved PARP expression at 20 uM pre-treated with stress inhibitor 4-PBA before compound addition by immunoblot analysis; format: functional, cell-based
A549 [32] = test: Induction of ER stress-activated unfolded protein response pathway in human A549 cells assessed as increase in IRE1alpha-mediated splicing of XBP1 mRNA by measuring increase in 279-/261-base pair fragments at 20 uM within 3 hrs by RT-PCR analysis; format: functional, cell-based
A549 [33] = test: Induction of ER stress-activated unfolded protein response pathway in human A549 cells assessed as increase in IRE1alpha-mediated splicing of XBP1 mRNA by measuring increase in 540-base pair fragments at 20 uM after 12 hrs by RT-PCR analysis; format: functional, cell-based
A549 [34] = test: Induction of ER stress-activated unfolded protein response pathway in human A549 cells assessed as increase in IRE1alpha-mediated splicing of XBP1 mRNA by measuring increase in 540-base pair fragments at 20 uM after 24 hrs by RT-PCR analysis; format: functional, cell-based

In the case of `COc1cc(/C=C/C(=O)c2cc(OC)ccc2O)cc(OC)c1`, the Activity (A549 [1]) is reported as 16%, the Activity (A549 [2]) is reported as 9% and the Activity (A549 [3]) is reported as “Active”. The Activity (NCI-H460) was “Active”, the Activity (NCI-H1299) was “Active” and the viability at 5 µM (A549 [4]) was 90.1%. For the same molecule, the viability at 10 µM (A549 [5]) was 83.9%, the viability at 20 µM (A549 [6]) was 50.8% and the Activity (A549 [7]) was 29.6 - 30%. The Activity (A549 [8]) was 29.8 - 30%, the Activity (A549 [9]) was 26 - 26.5% and the Activity (A549 [10]) was 14 - 14.1%. For the same molecule, the Activity (A549 [11]) was 56%, the Activity (A549 [12]) was 18% and the Activity (A549 [13]) was “Active”. The Activity (A549 [14]) was “Active”, the Activity (A549 [15]) was “Active” and the Activity (A549 [16]) was “Active”. For the same molecule, the Activity (A549 [17]) was “Active”, the Activity (A549 [18]) was “Active” and the Activity (A549 [19]) was “inactive”. For the same molecule, the Activity (A549 [20]) was “inactive”, the Activity (MDA-MB-231) was “Active” and the Activity (MCF-12A) was “Non-Toxic”. For the same molecule, the Activity [21] was “Active”, the Activity (A549 [22]) was “Active” and the Activity (A549 [23]) was “Active”. For the same molecule, the Activity (A549 [24]) was “Active”, the Activity (A549 [25]) was “Active” and the Activity (A549 [26]) was “Active”. For the same molecule, the Activity (A549 [27]) was “Active”, the Activity (A549 [28]) was “Dose-dependent effect” and the Activity (A549 [29]) was “Active”. The Activity (A549 [30]) was “Active”, the Activity (A549 [31]) was “Active” and the Activity (A549 [32]) was “Active”. For the same molecule, the Activity (A549 [33]) was “Active” and the Activity (A549 [34]) was “inactive”.
